Reference: patent US20260092076A1, “NOVEL COMPOUNDS” (Hoffmann-La Roche Inc., priority 2023, published 2026)

Tests used:
[1] = target: T1, NLRP3 (Homo sapiens, UniProt Q96P20); test: Human whole blood IL-1β release assay; type: cell-based; conditions: human whole blood with 1 μg/ml LPS, compound 3 hours, nigericin 10 μM 1 hr, IL-1β by AlphaLisa
Method: For systemic delivery, the ability to inhibit NLRP3 when the compounds are present within the bloodstream is of great importance. For this reason, the NLRP3 inhibitory activity of a number of compounds in human whole blood was investigated in accordance with the following protocol. • Human whole blood in Li-heparin tubes was obtained from healthy donors from a volunteer donor panel. • Plate out 80 μl of whole blood containing 1 μg/ml of LPS in 96-well, clear bottom cell culture plate (Corning #3585) • Add 10 μl compound (8 points half-log dilution with 10 μM top dose) or vehicle (DMSO 0.1% FAC) to the appropriate wells • Incubate for 3 hours at 37° C., 5% CO2 • Add 10 μl nigericin (Sigma #N7143) (10 μM FAC) to all wells • Incubate for 1 hr at 37° C., 5% CO2 • At the end of the incubation period, spin plates at 300×g for 5 mins to pellet cells and remove 20 μl of supernatant and add to 96-well v-bottom plates for IL-1β analysis (note: these plates containing the supernatants can be stored at −80° C. to be analysed at a later date) • IL-1β was measured according to the manufacturer protocol (Perkin Elmer-AlphaLisa IL-1 Kit AL220F-5000) • IC50 data is fitted to a non-linear regression equation (log inhibitor vs response-variable slope 4-parameters)

[2] = target: T1, NLRP3; test: THP-1 cells pyroptosis assay; type: cell-based; parameters: Seed THP-1 cells (25,000 cells/well) containing 1.0 μg/ml LPS in 40 μl of RPMI medium; host or cells: THP-1 cells, LPS-primed, nigericin-stimulated; conditions: THP-1 cells with 1.0 μg/ml LPS, compound 3 hours, nigericin 5 μM 1 hr, resazurin readout
Method: THP-1 cells (ATCC #TIB-202) were grown in RPMI containing L-glutamine (Gibco #11835) supplemented with 1 mM sodium pyruvate (Sigma #S8636) and penicillin (100 units/ml)/streptomycin (0.1 mg/ml) (Sigma #P4333) in 10% Fetal Bovine Serum (FBS) (Sigma #F0804). The cells were routinely passaged and grown to confluency (˜10^6 cells/ml). On the day of the experiment, THP-1 cells were harvested and resuspended into RPMI medium (without FBS). The cells were then counted and viability (>90%) checked by Trypan blue (Sigma #T8154). Appropriate dilutions were made to give a concentration of 625,000 cells/ml. To this diluted cell solution was added LPS (Sigma #L4524) to give a 1 μg/ml Final Assay Concentration (FAC). 40 μl of the final preparation was aliquoted into each well of a 96-well plate. The plate thus prepared was used for compound screening.
The following method step-by-step assay was followed for compound screening. • Seed THP-1 cells (25,000 cells/well) containing 1.0 μg/ml LPS in 40 μl of RPMI medium (without FBS) in 96-well, black walled, clear bottom cell culture plates coated with poly-D-lysine (VWR #734-0317) • Add 5 μl compound (8 points half-log dilution, with 10 μM top dose) or vehicle (DMSO 0.1% FAC) to the appropriate wells • Incubate for 3 hours at 37° C., 5% CO2 • Add 5 μl nigericin (Sigma #N7143) (FAC 5 μM) to all wells • Incubate for 1 hr at 37° C., 5% CO2 • At the end of the incubation period, spin plates at 300×g for 3 mins and remove supernatant • Then add 50 μl of resazurin (Sigma #R7017) (FAC 100 μM resazurin in RPMI medium without FBS) and incubate plates for a further 1-2 hours at 37° C. and 5% CO2 • Plates were read in an Envision reader at Ex 560 nm and Em 590 nm • IC50 data is fitted to a non-linear regression equation (log inhibitor vs response-variable slope 4-parameters)

T1 sequence (Q96P20 whole entry): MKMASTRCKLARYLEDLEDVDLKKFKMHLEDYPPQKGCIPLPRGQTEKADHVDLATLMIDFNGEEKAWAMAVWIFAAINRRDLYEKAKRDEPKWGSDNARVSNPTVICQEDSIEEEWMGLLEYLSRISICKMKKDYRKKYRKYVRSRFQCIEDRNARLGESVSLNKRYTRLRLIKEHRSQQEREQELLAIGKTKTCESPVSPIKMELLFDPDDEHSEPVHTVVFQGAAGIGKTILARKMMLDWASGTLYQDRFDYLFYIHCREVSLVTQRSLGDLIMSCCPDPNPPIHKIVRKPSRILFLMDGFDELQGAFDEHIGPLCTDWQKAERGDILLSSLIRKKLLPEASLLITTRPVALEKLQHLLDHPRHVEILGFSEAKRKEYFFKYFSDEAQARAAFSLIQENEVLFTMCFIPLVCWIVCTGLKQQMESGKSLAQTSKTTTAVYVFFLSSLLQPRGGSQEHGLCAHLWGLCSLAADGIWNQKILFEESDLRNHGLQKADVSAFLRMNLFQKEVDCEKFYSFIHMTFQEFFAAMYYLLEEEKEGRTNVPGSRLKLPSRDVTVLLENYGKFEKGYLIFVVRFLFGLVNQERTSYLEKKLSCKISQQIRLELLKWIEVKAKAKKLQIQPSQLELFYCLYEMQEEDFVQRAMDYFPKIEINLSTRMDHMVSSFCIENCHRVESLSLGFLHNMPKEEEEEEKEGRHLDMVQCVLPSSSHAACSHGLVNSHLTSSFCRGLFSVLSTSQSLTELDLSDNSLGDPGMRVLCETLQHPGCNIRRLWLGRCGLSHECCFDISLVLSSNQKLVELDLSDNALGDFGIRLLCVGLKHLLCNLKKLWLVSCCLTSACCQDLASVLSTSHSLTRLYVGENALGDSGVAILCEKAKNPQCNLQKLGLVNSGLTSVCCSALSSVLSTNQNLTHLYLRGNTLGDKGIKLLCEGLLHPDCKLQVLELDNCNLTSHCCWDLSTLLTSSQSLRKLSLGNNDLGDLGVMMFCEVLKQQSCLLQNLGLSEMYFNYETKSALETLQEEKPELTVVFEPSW

SMILES	IC50 [1]	IC50 [2]
Cc1cc(Cl)cc(O)c1-c1ccc2oc(N3CCc4ccc(F)cc4C3)nc2n1 [Example 35, 5-Chloro-2-[2-(7-fluoro-3,4-dihydro-1H-isoquinolin-2-yl)oxazolo[4,5-b]pyridin-5-yl]-3-methyl-phenol]		236 nM
Cc1cc(Cl)cc(O)c1-c1ccc2oc(N3CCc4cc(=O)[nH]cc4C3)nc2n1 [Example 27, 7-[5-(4-Chloro-2-hydroxy-6-methyl-phenyl)oxazolo[4,5-b]pyridin-2-yl]-2,5,6,8-tetrahydro-2,7-naphthyridin-3-one]	423 nM	52.2 nM
Cc1cc(Cl)cc(O)c1-c1ccc2oc(N3Cc4cccc(F)c4C3)nc2n1 [Example 9, 5-Chloro-2-[2-(4-fluoroisoindolin-2-yl)oxazolo[4,5-b]pyridin-5-yl]-3-methyl-phenol]		263 nM
Cc1cc(Cl)cc(O)c1-c1ccc2oc(N3Cc4ccccc4C3)nc2n1 [Example 6, 5-Chloro-2-(2-isoindolin-2-yloxazolo[4,5-b]pyridin-5-yl)-3-methyl-phenol]		90 nM
Cc1cc(Cl)cc(O)c1-c1ccc2oc(N3Cc4ccc5c(c4C3)OCO5)nc2n1 [Example 42, 5-Chloro-2-(2-(6,8-dihydro-7H-[1,3]dioxolo[4,5-e]isoindol-7-yl)oxazolo[4,5-b]pyridin-5-yl)-3-methylphenol]		144 nM
Cc1cc(Cl)cc(O)c1-c1ccc2oc(N3Cc4ccc(O)cc4C3)nc2n1 [Example 8, 2-[5-(4-Chloro-2-hydroxy-6-methyl-phenyl)oxazolo[4,5-b]pyridin-2-yl]isoindolin-5-ol]		69.9 nM
Cc1cc(C(F)(F)F)cc(O)c1-c1ccc2oc(N3CCc4nc[nH]c(=O)c4C3)nc2n1 [Example 41, 6-[5-[2-Hydroxy-6-methyl-4-(trifluoromethyl)phenyl]oxazolo[4,5-b]pyridin-2-yl]-3,5,7,8-tetrahydropyrido[4,3-d]pyrimidin-4-one]		174 nM
Cc1cc(C#N)cc(O)c1-c1ccc2oc(N3Cc4ccccc4C3)nc2n1 [Example 16, 3-Hydroxy-4-(2-isoindolin-2-yloxazolo[4,5-b]pyridin-5-yl)-5-methyl-benzonitrile]		66 nM
COc1cccc2c1CCN(c1nc3nc(-c4c(C)cc(Cl)cc4O)ccc3o1)C2 [Example 34, 5-chloro-2-[2-(5-methoxy-3,4-dihydro-1H-isoquinolin-2-yl)oxazolo[4,5-b]pyridin-5-yl]-3-methyl-phenol]		675 nM
Cc1cc(Cl)cc(O)c1-c1ccc2oc(N3CCc4c(C#N)cccc4C3)nc2n1 [Example 33, 2-(5-(4-Chloro-2-hydroxy-6-methylphenyl)oxazolo[4,5-b]pyridin-2-yl)-1,2,3,4-tetrahydroisoquinoline-5-carbonitrile]		447 nM
Cc1cc(C(F)(F)F)cc(O)c1-c1ccc2oc(N3Cc4nccnc4C3)nc2n1 [Example 23, 2-[2-(5,7-Dihydropyrrolo[3,4-b]pyrazin-6-yl)oxazolo[4,5-b]pyridin-5-yl]-3-methyl-5-(trifluoromethyl)phenol]	3720 nM	
Cc1cc(Cl)cc(O)c1-c1ccc2oc(N3CCc4nccnc4C3)nc2n1 [Example 40, 5-Chloro-2-[2-(7,8-dihydro-5H-pyrido[3,4-b]pyrazin-6-yl)oxazolo[4,5-b]pyridin-5-yl]-3-methyl-phenol]		71.6 nM
Cc1cc(C(F)(F)F)cc(O)c1-c1ccc2oc(N3Cc4[nH]c(=O)[nH]c(=O)c4C3)nc2n1 [Example 44, 6-[5-[2-Hydroxy-6-methyl-4-(trifluoromethyl)phenyl]oxazolo[4,5-b]pyridin-2-yl]-5,7-dihydro-1H-pyrrolo[3,4-d]pyrimidine-2,4-dione]		245 nM

Further compounds by falling IC50 [2], results first:

IC50 [1]	IC50 [2]	SMILES
2230 nM	29 nM	Cc1cc(C#N)cc(O)c1-c1ccc2oc(N3Cc4ccncc4C3)nc2n1 [Example 10, 4-[2-(1,3-Dihydropyrrolo[3,4-c]pyridin-2-yl)oxazolo[4,5-b]pyridin-5-yl]-3-hydroxy-5-methyl-benzonitrile]
225 nM	27.1 nM	Cc1ncc2c(n1)CCN(c1nc3nc(-c4c(C)cc(Cl)cc4O)ccc3o1)C2 [Example 11, 5-Chloro-3-methyl-2-[2-(2-methyl-7,8-dihydro-5H-pyrido[4,3-d]pyrimidin-6-yl)oxazolo[4,5-b]pyridin-5-yl]phenol]
326 nM	24.8 nM	OCc1cc(Cl)cc(O)c1-c1cnc2oc(N3Cc4ccncc4C3)nc2n1 [Example 30, 5-Chloro-2-[2-(1,3-dihydropyrrolo[3,4-c]pyridin-2-yl)oxazolo[4,5-b]pyrazin-5-yl]-3-(hydroxymethyl)phenol]
345 nM	17.9 nM	Cc1cc(Cl)cc(O)c1-c1ccc2oc(N3CCc4ncncc4C3)nc2n1 [Example 31, 5-Chloro-2-[2-(7,8-dihydro-5H-pyrido[4,3-d]pyrimidin-6-yl)oxazolo[4,5-b]pyridin-5-yl]-3-methyl-phenol]
962 nM	11.1 nM	Cc1cc(C(F)(F)F)cc(O)c1-c1ccc2oc(N3CCc4cc(=O)[nH]cc4C3)nc2n1 [Example 19, 7-[5-[2-Hydroxy-6-methyl-4-(trifluoromethyl)phenyl]oxazolo[4,5-b]pyridin-2-yl]-2,5,6,8-tetrahydro-2,7-naphthyridin-3-one]
487 nM	9.5 nM	Cc1cc(Cl)cc(O)c1-c1ccc2oc(N3Cc4ccncc4C3)nc2n1 [Example 7, 5-chloro-2-[2-(1,3-dihydropyrrolo[3,4-c]pyridin-2-yl)oxazolo[4,5-b]pyridin-5-yl]-3-methyl-phenol]
117 nM	7.7 nM	Cc1cc(C#N)cc(O)c1-c1ccc2oc(N3Cc4c[nH]c(=O)cc4C3)nc2n1 [Example 3, 3-Hydroxy-5-methyl-4-[2-(6-oxo-3,5-dihydro-1H-pyrrolo[3,4-c]pyridin-2-yl)oxazolo[4,5-b]pyridin-5-yl]benzonitrile]
2350 nM	6.9 nM	Cc1cc(C(F)(F)F)cc(O)c1-c1ccc2oc(N3Cc4cncnc4C3)nc2n1 [Example 18, 2-[2-(5,7-Dihydropyrrolo[3,4-d]pyrimidin-6-yl)oxazolo[4,5-b]pyridin-5-yl]-3-methyl-5-(trifluoromethyl)phenol]
1450 nM	4.2 nM	Cc1cc(C(F)(F)F)cc(O)c1-c1ccc2oc(N3Cc4ccc(=O)[nH]c4C3)nc2n1 [Example 20, 6-[5-[2-Hydroxy-6-methyl-4-(trifluoromethyl)phenyl]oxazolo[4,5-b]pyridin-2-yl]-5,7-dihydro-1H-pyrrolo[3,4-b]pyridin-2-one]
301 nM	3.3 nM	Cc1cc(C(F)(F)F)cc(O)c1-c1ccc2oc(N3Cc4cc(=O)n(C)cc4C3)nc2n1 [Example 2, 2-[5-[2-Hydroxy-6-methyl-4-(trifluoromethyl)phenyl]oxazolo[4,5-b]pyridin-2-yl]-5-methyl-1,3-dihydropyrrolo[3,4-c]pyridin-6-one]
35.9 nM	2.1 nM	Cc1cc(Cl)cc(O)c1-c1cnc2oc(N3Cc4ccncc4C3)nc2n1 [Example 29, 5-Chloro-2-[2-(1,3-dihydropyrrolo[3,4-c]pyridin-2-yl)oxazolo[4,5-b]pyrazin-5-yl]-3-methyl-phenol; formic acid]
108 nM	0.7 nM	Cc1cc(C(F)(F)F)cc(O)c1-c1ccc2oc(N3Cc4c[nH]c(=O)cc4C3)nc2n1 [Example 1, 2-[5-[2-Hydroxy-6-methyl-4-(trifluoromethyl)phenyl]oxazolo[4,5-b]pyridin-2-yl]-3,5-dihydro-1H-pyrrolo[3,4-c]pyridin-6-one]
